The record followed here is US11767341B2, “Lincosamide antibiotics and uses thereof” (President and Fellows of Harvard College, priority 2017, dated 2023).

Test in all cases: MIC determination
What all share (type): cell-based

The subject of one test is E. coli MP-9 ΔTolC. The settings on record: Escherichia coli.
For test [1], the system named is E. coli MP-74 LptD mutant. The conditions noted are these: Escherichia coli.
Test [2] deals with S. pneumoniae MMX 3028 cErmB. The settings on record: Streptococcus pneumoniae, MMX3028CERMB.
Test [3] has as its system S. aureus MP-549 msr(a) USA 300. The conditions noted are these: Staphylococcus aureus, USA300, S. aureus MP-549 msr(a) USA 300.
Another test relates to S. aureus BAA 977 iErmA. The conditions noted are these: Staphylococcus aureus, BAA977.
In a further test the test system is K. pneumoniae ATCC 10031. The settings on record: Klebsiella pneumoniae, ATCC10031.
In test [4] the test system is E. faecalis MMX 847 Macrolide-Resistant. The conditions noted are these: Enterococcus faecalis, read-out: MIC.
In the next test the test system is S. pneumoniae ATCC 49619. The conditions noted are these: Streptococcus pneumoniae, ATCC49619; S. pneumoniae ATCC 49619; read-out: MIC.
The subject of the next test is S. pyogenes ATCC 19615. The settings on record: Streptococcus pyogenes, ATCC19615; S. pyogenes ATCC 19615; read-out: MIC.
A further test deals with S. aureus MMX 3035 cErmA. The conditions noted are these: Staphylococcus aureus, MMX3035CERMA; S. aureus MMX 3035 cErmA; read-out: MIC.
A further test has as its system E. faecalis ATCC 29212. The settings on record: Enterococcus faecalis, ATCC29212, read-out: MIC.
In test [5] the test system is S. pneumoniae MMX 3031 cMefA. The conditions noted are these: Streptococcus pneumoniae, MMX3031CMEFA.
A further test has as its system E. coli ATCC 25922. The settings on record: Escherichia coli, ATCC25922, E. coli ATCC 25922; read-out: MIC.
For test [6], the system named is S. pyogenes MMX 946 Macrolide-Resistant. The conditions noted are these: Streptococcus pyogenes, read-out: MIC.
A further test concerns H. influenzae ATCC 49247. The conditions noted are these: Haemophilus influenzae, ATCC49247.
In the next test the test system is S. aureus ATCC 29213. The settings on record: Staphylococcus aureus, ATCC29213, S. aureus ATCC 29213; read-out: MIC.
[7] abbreviates: S. pneumoniae MMX 3028 cErmB, read-out: MIC.
[8] abbreviates: K. pneumoniae ATCC 10031, read-out: MIC.
Where [9] appears, read: H. influenzae ATCC 49247, read-out: MIC.
Where [10] appears, read: E. faecalis MMX 847 Macrolide-Resistant (MacRes).
[11] abbreviates: S. pyogenes MMX 946 Macrolide-Resistant (MacRes).

Values after ≈ are worked out from the molar mass of the structure shown. Where two headings read alike, the source gives them in different places. Bounds are passed on as bounds.

Regarding `CSC1O[C@H]([C@H](NC(=O)[C@H]2NC[C@@H]3C[C@@H](CCc4cccc(F)c4)CCO[C@H]32)[C@H](C)Cl)C(O)[C@@H](O)[C@H]1O` (stereo partly shown) [FSA-510022], the MIC against E. coli MP-9 ΔTolC came out at 4 mg/L (≈ 7.13 µM); in [1], 4 mg/L (≈ 7.13 µM); in [2] (setting [7]), 4 mg/L (≈ 7.13 µM); in test [3] it was 0.12 mg/L (≈ 0.214 µM); in the test with S. aureus BAA 977 iErmA, 0.12 mg/L (≈ 0.214 µM); with K. pneumoniae ATCC 10031 (setting [8]), 2 mg/L (≈ 3.56 µM). In addition, the MIC in test [4] (E. faecalis MMX 847 MacRes) is 2 mg/L (≈ 3.56 µM); with S. pneumoniae ATCC 49619 it was at most 0.06 mg/L; with S. pyogenes ATCC 19615, at most 0.06 mg/L; in the test on S. aureus MMX 3035 cErmA, 2 mg/L (≈ 3.56 µM); with E. faecalis ATCC 29212 it was 0.25 mg/L (≈ 0.446 µM); in test [5], at most 0.06 mg/L. Further, the MIC in the test on E. coli ATCC 25922 amounted to 32 mg/L (≈ 57 µM); in test [6] (S. pyogenes MMX 946 MacRes), 0.5 mg/L (≈ 0.891 µM); with H. influenzae ATCC 49247 (setting [9]), 1 mg/L (≈ 1.78 µM); in the test on S. aureus ATCC 29213, 0.12 mg/L (≈ 0.214 µM).

In the case of `CSC1O[C@H]([C@H](NC(=O)[C@H]2NC[C@@H]3C=C(c4cccc(F)c4)CCO[C@@H]23)[C@H](C)Cl)C(O)[C@@H](O)[C@H]1O` (stereo partly shown) [FSA-511071], the MIC is 64 mg/L (≈ 121 µM) against E. coli MP-9 ΔTolC; 64 mg/L (≈ 121 µM) in [1]; 64 mg/L (≈ 121 µM) in test [2]; 1 mg/L (≈ 1.88 µM) in [3]; 2 mg/L (≈ 3.77 µM) in the test on S. aureus BAA 977 iErmA; 64 mg/L (≈ 121 µM) in the test on K. pneumoniae ATCC 10031. Also, the MIC was above 64 mg/L in test [4] (setting [10]); 0.25 mg/L (≈ 0.471 µM) with S. pneumoniae ATCC 49619; 0.5 mg/L (≈ 0.942 µM) in the test with S. pyogenes ATCC 19615; above 64 mg/L with S. aureus MMX 3035 cErmA; 4 mg/L (≈ 7.53 µM) in the test on E. faecalis ATCC 29212; 0.5 mg/L (≈ 0.942 µM) in test [5]. For the same compound, the MIC in the test with E. coli ATCC 25922 is above 64 mg/L; in test [6] (setting [11]), above 64 mg/L; in the test on H. influenzae ATCC 49247 (setting [9]), above 64 mg/L; with S. aureus ATCC 29213, 7 mg/L (≈ 13.2 µM).

With `CSC1O[C@H]([C@H](NC(=O)[C@H]2NC[C@@H]3C[C@@H](c4cc(F)cc(F)c4)CCO[C@H]32)[C@H](C)Cl)C(O)[C@@H](O)[C@H]1O` (stereo partly shown) [FSA-511080], the MIC against E. coli MP-9 ΔTolC came out at 4 mg/L (≈ 7.26 µM); in test [1], 16 mg/L (≈ 29 µM); in [2] (setting [7]), 8 mg/L (≈ 14.5 µM); in [3] it was 0.25 mg/L (≈ 0.454 µM); in the test with S. aureus BAA 977 iErmA, 0.25 mg/L (≈ 0.454 µM); against K. pneumoniae ATCC 10031, 16 mg/L (≈ 29 µM). Moreover, the MIC in test [4] (E. faecalis MMX 847 MacRes) is above 64 mg/L; in the test on S. pneumoniae ATCC 49619, at most 0.06 mg/L; in the test with S. pyogenes ATCC 19615 it was at most 0.06 mg/L; in the test with S. aureus MMX 3035 cErmA, above 64 mg/L; in the test on E. faecalis ATCC 29212 it was 0.5 mg/L (≈ 0.907 µM); in test [5], at most 0.06 mg/L. In addition, the MIC in the test with E. coli ATCC 25922 is above 64 mg/L; in test [6] (S. pyogenes MMX 946 MacRes), 32 mg/L (≈ 58.1 µM); with H. influenzae ATCC 49247 it was 16 mg/L (≈ 29 µM); with S. aureus ATCC 29213 it was 0.12 mg/L (≈ 0.218 µM).

Turning to `CSC1O[C@H]([C@H](NC(=O)[C@H]2NC[C@@H]3C[C@@H](c4cccc(F)c4)CCO[C@H]32)[C@H](C)Cl)C(O)[C@@H](O)[C@H]1O` (stereo partly shown) [FSA-511077], the MIC against E. coli MP-9 ΔTolC was 4 mg/L (≈ 7.5 µM); in test [1] it was 16 mg/L (≈ 30 µM); in [2] (setting [7]), 8 mg/L (≈ 15 µM); in test [3], 0.25 mg/L (≈ 0.469 µM); against S. aureus BAA 977 iErmA, 0.25 mg/L (≈ 0.469 µM); in the test on K. pneumoniae ATCC 10031 (setting [8]), 8 mg/L (≈ 15 µM). For the same compound, the MIC is 64 mg/L (≈ 120 µM) in test [4] (E. faecalis MMX 847 MacRes); at most 0.06 mg/L in the test with S. pneumoniae ATCC 49619; at most 0.06 mg/L in the test on S. pyogenes ATCC 19615; above 64 mg/L with S. aureus MMX 3035 cErmA; 0.5 mg/L (≈ 0.938 µM) with E. faecalis ATCC 29212; at most 0.06 mg/L in [5]. Also, the MIC with E. coli ATCC 25922 was above 64 mg/L; in test [6] (S. pyogenes MMX 946 MacRes), 32 mg/L (≈ 60 µM); against H. influenzae ATCC 49247, 16 mg/L (≈ 30 µM); in the test on S. aureus ATCC 29213 it was 0.25 mg/L (≈ 0.469 µM).

On to `CSC1O[C@H]([C@H](NC(=O)[C@H]2NC[C@@H]3CC=CCO[C@H]32)[C@H](C)Sc2ccc(-c3cccnc3)cc2)C(O)[C@@H](O)[C@H]1O` (stereo partly shown) [FSA-213061], for which the MIC with E. coli MP-9 ΔTolC came out at 8 mg/L (≈ 13.6 µM); in test [1] it was 8 mg/L (≈ 13.6 µM); in test [2] (setting [7]), 8 mg/L (≈ 13.6 µM); in test [3], 0.5 mg/L (≈ 0.851 µM); in the test on S. aureus BAA 977 iErmA, 0.25 mg/L (≈ 0.425 µM); in the test with K. pneumoniae ATCC 10031 (setting [8]), 32 mg/L (≈ 54.4 µM). The MIC was above 64 mg/L in [4] (setting [10]); at most 0.06 mg/L in the test with S. pneumoniae ATCC 49619; at most 0.06 mg/L in the test with S. pyogenes ATCC 19615; 64 mg/L (≈ 109 µM) with S. aureus MMX 3035 cErmA; 16 mg/L (≈ 27.2 µM) with E. faecalis ATCC 29212; 0.125 mg/L (≈ 0.213 µM) in [5]. For the same compound, the figures for the MIC (in the test on E. coli ATCC 25922; in test [6] (setting [11]); with S. aureus ATCC 29213) were above 64 mg/L, 4 mg/L (≈ 6.81 µM) and 0.25 mg/L (≈ 0.425 µM), respectively.
